# Data published in patent US20090148850A1, “Methods for identifying modulators of P2RY14” (priority 2007, published 2009).
# Assays:
# [1] = tested on: simian (chimpanzee) P2RY14; test: FLIPR whole cell Ca2+ agonist assay, HEK cells expressing simian (chimpanzee) P2RY14 and Gqi5; assay type: cell-based
# Source text: (§1) Stable HEK clonal cell lines expressing P2RY14 and the chimeric G protein Gqi5 were constructed. The chimeric Gqi5 forces the coupling of P2RY14 through the Gq (calcium) pathway and allows for monitoring of calcium signaling using a calcium binding fluorescent dye and a FLIPR (fluorometric imaging plate reader, MDS Sciex). Vector pCEP4 comprising the chimeric Gqi5 was obtained from Molecular Devices, Sunnyvale, Calif. (Cat. No. RD-PGQI5).
# The simian (chimpanzee) P2RY14 nucleic acid fragment was synthesized based upon the Ensembl Gene ID ENSPTRG00000030093 by Bio S & T, Montreal, Quebec, Canada, to be flanked with KpnI and NotI restriction enzyme sites. […] The DNA fragment was digested with KpnI and NotI and then cloned into a pcDEF3 vector previously digested with KpnI and NotI to place the DNA fragment in the proper orientation downstream of the human EF-1a promoter. The nucleic acid encoding the simian P2RY14 was under the control of the human EF-1a promoter.
# (§2) Cells were grown in DMEM medium containing 25 mM HEPES, pH 7.4 and 10% FBS, 50 units/ml penicillin/50 μg/ml streptomycin, 2 mM glutamine and 1 mM sodium pyruvate at 37° C. in humidified air containing 5% CO2. Two days post-transfection, cells were grown under selection in the DMEM medium as indicated above and supplemented with 200 μg/ml Hygromycin B and 250 μg/ml geneticin.
# (§3) Cells were incubated overnight at 37° C. and 5% CO2 to form a monolayer. On the following day, 30 μl of fluorescent no-wash dye was added to the cell monolayer and the plate was incubated for 60 minutes at 37° C., 5% CO2.
# (§4) For agonist assays, 6.12 μl of 10× agonist solution was added to the cell/dye incubation and Ca^2+ signaling was monitored by FLIPR. For antagonist assays, 250 nl of compound in 100% DMSO was added to cell/dye mixture; following a 20 minute incubation at room temperature, 6.12 μl of 10× agonist solution at EC80 in HBSS containing 20 mM Hepes was added to cells and Ca^2+ signaling was monitored by FLIPR. Quantitation of the % stimulation or inhibition of Ca^2+ signaling by agonist or antagonist, respectively, was calculated using the Max-Min fluorescent signal detected.
# mouse P2RY14 [2] = biological target: T1, mouse P2RY14 (Mus musculus, UniProt Q9ESG6); test: FLIPR whole cell Ca2+ agonist assay, HEK cells expressing mouse P2RY14 and Gqi5; assay type: cell-based
# T1 construct: expressed in transfected cells
# T1 sequence (Q9ESG6 1-338): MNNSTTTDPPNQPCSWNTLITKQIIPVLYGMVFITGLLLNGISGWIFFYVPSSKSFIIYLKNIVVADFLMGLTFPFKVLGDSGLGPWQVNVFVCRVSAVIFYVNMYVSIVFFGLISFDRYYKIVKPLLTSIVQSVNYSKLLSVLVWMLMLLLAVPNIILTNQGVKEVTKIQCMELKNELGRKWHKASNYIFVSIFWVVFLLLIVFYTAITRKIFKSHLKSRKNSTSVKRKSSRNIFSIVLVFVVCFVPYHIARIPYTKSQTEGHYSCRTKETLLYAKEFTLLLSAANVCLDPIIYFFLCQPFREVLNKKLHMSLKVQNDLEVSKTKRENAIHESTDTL
# Source text: as §1
# The nucleic acid encoding the mouse P2RY14 was under the control of the CMV promoter.
# as §2, §3, §4
# [3] = tested on: simian (chimpanzee) P2RY14; test: CellKey System live cell functional assay, simian P2RY14; assay type: cell-based; conditions: HEK cells expressing simian P2RY14 and Gqi5
# Procedure: (§5) The Cellkey System™ (MDS Sciex), a novel, live cell, label-free, real-time technology, was used to examine P2RY14 activation following agonist stimulation. The CellKey System™ is based on cellular dielectric spectroscopy (CDS) and monitors changes in impedance of the applied electrical current through the cell monolayer upon receptor activation.
# (§6) On the following day, growth medium was removed from the cell monolayer and replaced with 135 μl of HBSS pH 7.4 containing 20 mM Hepes for a 30 minutes pre-incubation period at room temperature. Baseline measurements were made for 5 minutes at 28° C. prior to ligand addition. For agonist assays, 15 μl of 10× agonist diluted in HBSS pH 7.4 containing 20 mM HEPES was added to the cell monolayer simultaneously using the 96 multichannel head from the CellKey™ System. Cellular response was monitored for 10 minutes to assess cellular response after ligand addition.
# mouse P2RY14 [4] = biological target: T1, mouse P2RY14; test: CellKey System live cell functional assay, mouse P2RY14; assay type: cell-based; conditions: HEK cells expressing mouse P2RY14 and Gqi5
# Procedure: as §5, §6
# [5] = tested on: HEK cells not expressing P2RY14; test: FLIPR Ca2+ release in HEK cells not expressing P2RY14 (specificity); assay type: cell-based
# simian P2RY14 = test: Membrane filtration binding assay, simian P2RY14; set-up: species or system chimpanzee
# Procedure: (§7) Membrane preparations were made by N2 cavitation using a Parr unit. […] Cell were Dounce homogenized (size B, 10 strokes) and then added to the cavitation unit. Pressure was adjusted to 800 psi and cells were left under pressure for 30 minutes. Broken cells were released drop by drop and spun at 1000 g for 10 minutes. Supernatent was spun at 160,000 g (rotor type 60 Ti, 40000 rpm for 30 min). Pellet was resuspended in 10 mM HEPES/KOH pH 7.4, 1 mM EDTA in ⅕ the original volume, dounce homogenized (size A, 10 strokes), aliquoted, and frozen at −80° C.
# Binding assays were performed in 10 mM Hepes pH 7.4 (KOH), 5 mM MnCl2, 5 mM MgCl2 buffer. Membranes (10 μg/well for human P2RY14 and 30 μg/well for simian P2RY14) were incubated with 10 nM [5.6-^3H] Uridine 5′-triphosphate (UTP), ammonium salt from Amersham Biosciences (# TRK412) in presence of compounds diluted in DMSO (2% final in assay), in a total volume of 100 μl. 50 minutes (human P2RY14) or 60 minutes (simian) P2RY14) incubations were performed at room temperature with shaking. […] To examine the stability of [^3H]-UTP in the membrane filtration binding assay, 100 ul aliquots of the reaction mixture were extracted at 2, 10, 20, 40, 60 and 90 minutes with 100 uL of cold 80 mM EDTA solution (pH 8) and 200 uL of cold Acetonitrile. After mixing, proteins were precipitated by centrifugation at 13000 rpm for 10 minutes at 4° C. […] After 0.5 min at 10:90 50 mM KH2PO4/750 mM KH2PO4, a gradient was applied in order to increase to 100% 750 mM KH2PO4 at 5 min, after which this composition was maintained for an additional 3 min. Samples were kept at 4° C. prior to HPLC analysis
# rat P2YR14 receptor = biological target: T2, rat P2YR14 receptor (Rattus norvegicus, UniProt O35881); conditions: Fricks et al. 2007; cited from earlier work
# T2 sequence (O35881 1-305): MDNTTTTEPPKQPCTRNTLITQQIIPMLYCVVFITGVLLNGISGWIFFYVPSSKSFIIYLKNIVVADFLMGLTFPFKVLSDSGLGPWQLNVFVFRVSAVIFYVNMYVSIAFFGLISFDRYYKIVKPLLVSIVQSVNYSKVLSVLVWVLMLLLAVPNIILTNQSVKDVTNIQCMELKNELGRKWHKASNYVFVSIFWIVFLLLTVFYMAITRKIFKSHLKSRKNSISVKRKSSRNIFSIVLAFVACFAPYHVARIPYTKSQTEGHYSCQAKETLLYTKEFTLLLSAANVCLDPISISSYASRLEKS
# [6] = HPLC analysis of [3H]-UTP stability in the P2RY14 membrane filtration binding assay; conditions: 60 minute incubation
# Procedure: Binding assays were performed in 10 mM Hepes pH 7.4 (KOH), 5 mM MnCl2, 5 mM MgCl2 buffer. Membranes (10 μg/well for human P2RY14 and 30 μg/well for simian P2RY14) were incubated with 10 nM [5.6-^3H] Uridine 5′-triphosphate (UTP), ammonium salt from Amersham Biosciences (# TRK412) in presence of compounds diluted in DMSO (2% final in assay), in a total volume of 100 μl. 50 minutes (human P2RY14) or 60 minutes (simian) P2RY14) incubations were performed at room temperature with shaking. […] Incubation mixtures were filtered on GF/C Packard filter membranes (#6065174) and washed with cold 10 mM Hepes/KOH buffer at pH 7.4 (2×3.7 ml) using a Tomtek Mach III harvester. GF/C filters were subsequently dried at 55° C. in a vacuum oven for 1 hour before addition of 25 μl/well Ultima Gold F scintillation fluid from Packard (#6013179) and counted in a Wallac Microbeta counter normalized for ^3H (2 min/well). Counts (ccpms) generated by non specific binding were subtracted from total counts, to give specific binding which was expressed as % of total binding and K is were calculated by data analyzer using the inflection point of the dose dependant sigmoidal curve generated for each compound. Kds for [^3H]-UTP/[^3H]-UDP in the human and simian assays were determined by Scatchard analysis and are as follow: 10.03 nM for human P2RY14 and 10.25 nM for simian P2RY14. […]
# P2RY14 = biological target: T3, P2RY14 (Homo sapiens, UniProt Q15391); test: Membrane filtration binding assay, human P2RY14; set-up: expressed in transfected cells; conditions: human P2RY14 (data not shown)
# T3 sequence (Q15391 1-338): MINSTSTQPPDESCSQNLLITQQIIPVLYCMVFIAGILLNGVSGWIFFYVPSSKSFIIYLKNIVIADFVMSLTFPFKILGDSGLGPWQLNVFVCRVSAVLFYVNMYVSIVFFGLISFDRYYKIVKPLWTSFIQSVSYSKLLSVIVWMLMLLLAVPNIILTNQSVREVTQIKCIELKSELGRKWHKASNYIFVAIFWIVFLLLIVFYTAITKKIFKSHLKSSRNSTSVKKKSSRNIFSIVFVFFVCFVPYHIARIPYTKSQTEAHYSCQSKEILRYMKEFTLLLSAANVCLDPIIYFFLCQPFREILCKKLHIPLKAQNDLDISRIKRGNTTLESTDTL
# Procedure: as §7
# Binding assays were performed in 10 mM Hepes pH 7.4 (KOH), 5 mM MnCl2, 5 mM MgCl2 buffer. Membranes (10 μg/well for human P2RY14 and 30 μg/well for simian P2RY14) were incubated with 10 nM [5.6-^3H] Uridine 5′-triphosphate (UTP), ammonium salt from Amersham Biosciences (# TRK412) in presence of compounds diluted in DMSO (2% final in assay), in a total volume of 100 μl. 50 minutes (human P2RY14) or 60 minutes (simian) P2RY14) incubations were performed at room temperature with shaking. […] To examine the stability of [^3H]-UTP in the membrane filtration binding assay, 100 ul aliquots of the reaction mixture were extracted at 2, 10, 20, 40, 60 and 90 minutes with 100 uL of cold 80 mM EDTA solution (pH 8) and 200 uL of cold Acetonitrile. After mixing, proteins were precipitated by centrifugation at 13000 rpm for 10 minutes at 4° C. […]
smiles,measurement,setting,value
O=c1ccn([C@@H]2O[C@H](COP(=O)(O)OP(=O)(O)O)[C@@H](O)[C@H]2O)c(=O)[nH]1 [UDP],activation of P2RY14 (Ca2+ signaling),[1],activated
same,activation of P2RY14 (Ca2+ signaling),mouse P2RY14 [2],activated
same,"P2RY14 signaling (impedance, CellKey)",[3],mediated signaling
same,"P2RY14 signaling (impedance, CellKey)",mouse P2RY14 [4],mediated signaling
same,Ca2+ release in cells not expressing P2RY14,[5],do not stimulate Ca^2+ release
same,competition for [3H]-UTP/[3H]-UDP binding,simian P2RY14; simian P2RY14 membranes,able to successfully compete
same,mode of action at receptor,rat P2YR14 receptor,full agonist
"N.N.N.N.[3H]c1c([3H])n([C@@H]2O[C@H](COP(=O)(O)OP(=O)(O)OP(=O)(O)O)[C@@H](O)[C@H]2O)c(=O)[nH]c1=O [[^3H]-UTP, [5.6-^3H] Uridine 5′-triphosphate (UTP), ammonium salt]",specific binding window as radioligand,"simian P2RY14; HEK cells expressing simian P2RY14, membrane filtration",a specific binding window
same,stability of radioligand in membrane filtration binding assay,[6],converted predominantly to [^3H]-UDP
same,time of conversion to [3H]-UDP,[6],≤ 10 min
same,specific binding window as radioligand,P2RY14,a specific binding window
